Source: patent US5326694A, “Process for synthesizing human H2-prorelaxin, human H2-relaxin and fusion proteins thereof” (Howard Florey Institute of Experimental Physiology and …, priority 1982, dated 1994)
Ends that are not written are not given here.

System: spontaneous contractions of the rat uterus
Test: rat uterine contractility assay (Wiqvist & Paul)
Type: cell-based
Protocol: Using the above conditions chain combination yields from 1.5 to 6.0% have been achieved as measured by biological activity in the rat uterine contractility assay of Wiqvist & Paul (Acta Endocrinol., 29, 135-136, 1958).
Human relaxin H2 [S-thioethyl Cys^10,11,15 ] A(1-24) (4.2 mg dry wt., 2.4 mg peptide by amino acid analysis, 0.84 μmole) was dissolved in 500 μl of 0.1M glycine buffer pH 10.5 in a 3 ml stoppered plastic centrifuge tube. Human relaxin H2 [S-sulfo Cys^10,11 ] B(-1-24) (1.60 mg, 1.60 mg peptide by amino acid analysis, 0.33 μmole) dissolved in 200 μl of 0.1M glycine buffer pH 10.5 was added and the mixture agitated. An aliquot (23.0 μl, 2.21 μmole DTT) of a stock solution of dithithreitol (DTT) made up in 0.1M glycine buffer pH 10.5 (0.96 μmole DTT in 10 μl) was added to the peptide solution and following a brief agitation the reaction mixture was allowed to stand at 4° C. for 24 hours open to the air. The mixture was then centrifuged and aliquots of the supernatant solution tested for relaxin biological activity in the rat uterine contractility assay.
The synthetic S-sulfonated and S-thioethyl H2 human relaxin A(1-24) peptides were coupled to S-thioethyl H2 human relaxin B(-1-32) using the same chain combination procedures described previously for the shortened B-chain (-1-24). […]

hRLX A(1-24)-B(-1-32): Authentic human relaxin H2: synthetic A chain (1-24) combined with full length B chain (-1-32) (Relaxin B chain DSWMEEVIKLCGRELVRAQIAICGMSTWS; Relaxin A chain QLYSALANKCCHVGCTKRSLARFC; ends and bridges not checked; cysteine pairing not given here; UniProt P04090 25-53; P04090 162-185, looked up)
inhibition of uterine contractions by a 100 μl aliquot (100 μl aliquot of chain combination mixture, compared to native pig relaxin A22 B31 standard): completely inhibited uterine contractions
inhibition of the spontaneous contractions of the rat uterus by aliquots of the chain combination reaction mixture (aliquots of supernatant of chain combination mixture): inhibited the spontaneous contractions of the rat uterus in a dose-related manner
